Target: T1, human cannabinoid CB2 receptor (Homo sapiens, UniProt P34972)
T1 construct: expressed in transfected cells; host or cells: Saccharomyces cerevisiae strain MMY23
Test: Cannabinoid CB2 receptor agonist activity, yeast reporter assay (FDGlu fluorescence);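 for Emax: 100% equals maximal response of reference agonist HU210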
Assay type: cell-based
Details: for Emax: read-out: efficacy value (Emax) at the cloned human cannabinoid CB2 receptor

T1 sequence (P34972 whole entry): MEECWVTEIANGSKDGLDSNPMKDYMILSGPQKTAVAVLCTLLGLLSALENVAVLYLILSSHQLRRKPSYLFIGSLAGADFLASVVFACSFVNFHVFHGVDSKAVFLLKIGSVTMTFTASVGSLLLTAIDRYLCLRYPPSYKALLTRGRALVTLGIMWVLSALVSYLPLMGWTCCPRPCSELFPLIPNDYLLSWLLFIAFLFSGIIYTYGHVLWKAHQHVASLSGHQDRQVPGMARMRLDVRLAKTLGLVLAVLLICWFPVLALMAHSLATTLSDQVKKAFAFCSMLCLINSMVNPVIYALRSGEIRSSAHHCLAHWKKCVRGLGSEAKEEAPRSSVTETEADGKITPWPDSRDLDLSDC

| SMILES | EC50 | Emax |
| --- | --- | --- |
| CC(C)c1cc(Nc2cccc(Cl)c2Cl)ncc1C(=O)NCC1CCC1 [Example 252, N-Cyclobutylmethyl-6-(2,3-dichloro-phenylamino)-4-isopropyl-nicotinamide] | < 300 nM | > 50% |
| CC(C)c1cc(Nc2ccc(F)cc2Cl)ncc1C(=O)NCC1CCC1 [Example 253, 6-(2-Chloro-4-fluoro-phenylamino)-N-cyclobutylmethyl-4-isopropyl-nicotinamide] | < 300 nM | > 50% |
| CC(C)c1cc(Nc2ccc(F)c(Cl)c2)ncc1C(=O)NCC1CCC1 [Example 254, 6-(3-Chloro-4-fluoro-phenylamino)-N-cyclobutylmethyl-4-isopropyl-nicotinamide] | < 300 nM | > 50% |
| CC(C)c1cc(Nc2ccc(Br)cc2Cl)ncc1C(=O)NCC1CCC1 [Example 255, 6-(4-Bromo-2-chloro-phenylamino)-N-cyclobutylmethyl-4-isopropyl-nicotinamide] | < 300 nM | > 50% |
| CC(C)c1cc(Nc2ccc(Cl)cc2Br)ncc1C(=O)NCC1CCC1 [Example 256, 6-(2-Bromo-4-chloro-phenylamino)-N-cyclobutylmethyl-4-isopropyl-nicotinamide] | < 300 nM | > 50% |
| CC(C)c1cc(Nc2cccc(C(F)(F)F)c2F)ncc1C(=O)NCC1CCC1 [Example 257, N-cyclobutylmethyl-6-(2-fluoro-3-trifluoromethyl-phenylamino)-4-isopropyl-nicotinamide] | < 300 nM | > 50% |
| Cc1cc(Cl)ccc1Nc1cc(C(C)C)c(C(=O)NCC2CCC2)cn1 [Example 258, 6-(4-Chloro-2-methyl-phenylamino)-N-cyclobutylmethyl-4-isopropyl-nicotinamide] | < 300 nM | > 50% |
| CC(C)c1cc(Nc2ccc(C#N)cc2Cl)ncc1C(=O)NCC1CCC1 [Example 259, 6-(2-Chloro-4-cyano-phenylamino)-N-cyclobutylmethyl-4-isopropyl-nicotinamide] | < 300 nM | > 50% |
| CC(C)c1cc(Nc2ccc(C#N)cc2F)ncc1C(=O)NCC1CCC1 [Example 260, 6-(4-Cyano-2-fluoro-phenylamino)-N-cyclobutylmethyl-4-isopropyl-nicotinamide] | < 300 nM | > 50% |
| Cc1cc(C#N)ccc1Nc1cc(C(C)C)c(C(=O)NCC2CCC2)cn1 [Example 261, 6-(4-Cyano-2-methyl-phenylamino)-N-cyclobutylmethyl-4-isopropyl-nicotinamide] | < 300 nM | > 50% |
| CC(C)c1cc(Nc2ccc(C(F)(F)F)cc2Cl)ncc1C(=O)NCC1CCC1 [Example 262, 6-(2-Chloro-4-trifluoromethyl-phenylamino)-N-cyclobutylmethyl-4-isopropyl-nicotinamide] | < 300 nM | > 50% |
| CC(C)c1cc(Nc2cc(Cl)cc(Cl)c2)ncc1C(=O)NCC1CCC1 [Example 263, N-Cyclobutylmethyl-6-(3,5-dichloro-phenylamino)-4-isopropyl-nicotinamide] | < 300 nM | > 50% |
| CC(C)c1cc(Nc2cc(Cl)ccc2Cl)ncc1C(=O)NCC1CCC1 [Example 264, N-Cyclobutylmethyl-6-(2,5-dichloro-phenylamino)-4-isopropyl-nicotinamide] | < 300 nM | > 50% |
| CC(C)c1cc(Nc2cc(F)cc(F)c2)ncc1C(=O)NCC1CCC1 [Example 265, N-Cyclobutylmethyl-6-(3,5-difluoro-phenylamino)-4-isopropyl-nicotinamide] | < 300 nM | > 50% |
| CC(C)c1cc(Nc2cc(Cl)ccc2F)ncc1C(=O)NCC1CCC1 [Example 266, 6-(5-Chloro-2-fluoro-phenylamino)-N-cyclobutylmethyl-4-isopropyl-nicotinamide] | < 300 nM | > 50% |
| CC(C)c1cc(Nc2cc(F)ccc2Cl)ncc1C(=O)NCC1CCC1 [Example 267, 6-(2-Chloro-5-fluoro-phenylamino)-N-cyclobutytmethyl-4-isopropyl-nicotinamide] | < 300 nM | > 50% |
| CC(C)CNC(=O)c1cnc(Nc2cccc(Cl)c2)cc1C(C)C [Example 268, 6-(3-Chloro-phenylamino)-N-isobutyl-4-isopropyl-nicotinamide] | – | > 50% |
| CC(C)CNC(=O)c1cnc(Nc2cccc(C(F)(F)F)c2)cc1C(C)C [Example 269, N-Isobutyl-4-isopropyl-6-(3-trifluoromethyl-phenylamlno)-nicotinamide] | < 300 nM | > 50% |

| SMILES | EC50 | Emax |
| --- | --- | --- |
| CC(C)CNC(=O)c1cnc(Nc2ccc(Cl)c(Cl)c2)cc1C(C)C [Example 270, 6-(3,4-Dichloro-phenylamino)-N-isobutyl-4-isopropyl-nicotinamide] | < 300 nM | > 50% |
| CC(C)CNC(=O)c1cnc(Nc2cccc(C(F)(F)F)c2F)cc1C(C)C [Example 271, 6-(2-Fluoro-3-trifluoromethyl-phenylamino)-N-isobutyl-4-isopropyl-nicotinamide] | < 300 nM | > 50% |
| Cc1c(Br)cccc1Nc1cc(C(C)C)c(C(=O)NCC(C)C)cn1 [Example 272, 6-(3-Bromo-2-methyl-phenylamino)-N-isobutyl-4-isopropyl-nicotinamide] | < 300 nM | > 50% |
| CC(C)CNC(=O)c1cnc(Nc2ccc(Cl)cc2Cl)cc1C(C)C [Example 273, 6-(2,4-Dichloro-phenylamtno)-N-isobutyl-4-isopropyl-nicotinamide] | < 300 nM | > 50% |
| CC(C)CNC(=O)c1cnc(Nc2cc(F)ccc2Cl)cc1C(C)C [Example 274, 6-(2-Chloro-5-fluoro-phenylamino)-N-isobutyl-4-isopropyl-nicotinamide] | < 300 nM | > 50% |
| CC(C)CNC(=O)c1cnc(Nc2cc(F)cc(F)c2)cc1C(C)C [Example 275, 6-(3,5-Difluoro-phenylamino)-N-isobutyl-4-isopropyl-nicotinamide] | < 300 nM | > 50% |
| CC(C)CNC(=O)c1cnc(Nc2cc(Cl)ccc2F)cc1C(C)C [Example 276, 6-(5-Chloro-2-fluoro-phenylamino)-N-isobutyl-4-isopropyl-nicotinamide] | < 300 nM | > 50% |
| CC(C)CNC(=O)c1cnc(Nc2cccc(Br)c2)cc1C(C)C [Example 277, 6-(3-Bromo-phenylamino)-N-isobutyl-4-isopropyl-nicotinamide] | < 300 nM | > 50% |
| CC(C)c1cc(Nc2ccc(Cl)cc2Cl)ncc1C(=O)NCC1CCS(=O)(=O)C1 (stereo not drawn) [Example 278, 6-(2,4-Dichloro-phenylamino)-N-(1,1-dioxo-tetrahydro-1/^6-thiophen-3-ylmethyl)-4-isopropyl-nicotinamide] | < 300 nM | > 50% |
| CC(C)c1cc(Nc2ccc(Br)c(F)c2)ncc1C(=O)NCC1CCS(=O)(=O)C1 (stereo not drawn) [Example 279, 6-(4-Bromo-3-fluoro-phenylamino)-N-(1,1-dioxo-tetrahydro-1/^6-thiophen-3-ylmethyl)-4-isopropyl-nicotinamide] | < 300 nM | > 50% |
| CC(C)c1cc(Nc2ccc(OC(F)(F)F)cc2Br)ncc1C(=O)NCC1CCC1 [Example 291, 6-(2-Bromo-4-trifluoromethoxy-phenylamino)-N-cyclobutylmethyl-4-isopropyl-nicotinamide] | – | > 50% |
| CC(C)c1cc(Nc2ccc(C#N)cc2F)ncc1C(=O)NCC1CCCC1 [Example 293, 6-(4-Cyano-2-fluoro-phenylamino)-N-cyclopentylmethyl-4-isopropyl-nicotinamide] | < 300 nM | > 50% |
| CC(C)c1cc(Nc2ccc(Br)c(C(F)(F)F)c2)ncc1C(=O)NCC1CCOCC1 [Example 294, 6-(4-Bromo-3-trifluoromethyl-phenylamino)-4-isopropyl-N-(tetrahydropyran-4-ylmethyl)-nicotinamide] | – | > 50% |
| CC(C)c1cc(Nc2ccc(F)c(C(F)(F)F)c2)ncc1C(=O)NCC1CCOCC1 [Example 295, 6-(4-Fluoro-3-trifluoromethyl-phenylamino)-4-isopropyl-N-(tetrahydropyran-4-ylmethyl)-nicotinamide] | < 300 nM | > 50% |
| CC(C)c1cc(Nc2ccc(Br)c(Br)c2)ncc1C(=O)NCC1CCOCC1 [Example 296, 6-(3,4-Dibromo-phenylamino)-4-isopropyl-N-(tetrahydropyran-4-ylmethyl)-nicotinamide] | < 300 nM | > 50% |
| CC(C)c1cc(Nc2ccc(Br)c(F)c2)ncc1C(=O)NCC1CCOCC1 [Example 297, 6-(4-Bromo-3-fluoro-phenylamino)-4-isopropyl-N-(tetrahydropyran-4-ylmethyl)-nicotinamide] | < 300 nM | > 50% |
| Cc1cccc(Nc2cc(C(C)C)c(C(=O)NCC3CCOCC3)cn2)c1C#N [Example 303, 6-(2-Cyano-3-methyl-phenylamino)-4-isopropyl-N-(tetrahydropyran-4-ylmethyl)-nicotinamide] | – | > 50% |

From patent US20060240048A1 (priority 2002, published 2006)
